Measured values reported in patent publication US12134587B2, “Reaction products and methods for making and using the same” (KOCH AGRONOMIC SERVICES, LLC, priority 2010, dated 2024).

Tested on: nitrification of ammonium to nitrate in Greenville loamy soil
Experiment: Soil incubation test of nitrogen transformations (ammonium-N and nitrate-N)
Description: Three reaction products (Ex. 1-3) mixed with a urea solution to produce a liquid fertilizer solution were prepared and incubation tests were conducted. A comparative example of a urea only solution, i.e., a urea solution without a reaction product (C1), and a comparative example of a urea solution mixed with dicyandiamide (DCD) (C2) were also prepared and evaluated. For comparative example C2, the urea solution mixed with DCD was not reacted. In other words, the DCD was mixed with the urea solution to provide the fertilizer. A Control was also prepared that consisted of soil, i.e., no nitrogen source nor reaction product was added.
Incubation tests were performed using each Example 1-3 to evaluate the nitrogen transformations for each sample. The effect of each reaction product (Ex. 1-3) on the nitrogen concentration in the soil as both ammonium-nitrogen and nitrate-nitrogen were evaluated at three different concentrations of the reaction products. More particularly, the concentration of DCD for a first set of samples was 0.75 wt. % (Table 1), a second set of samples was 1.5 wt. % (Table 2), and a third set of samples was 3 wt. % (Table 3), where the weight percents of the DCD concentration are based on the total weight of nitrogen in the urea solution.
The soil used in the incubation tests was Greenville loamy soil (clay-loam, siliceous, thermic Plinthic Kandiudults). […] The phosphorous and sulfur concentrations were determined according to the Bray-1 test. The zinc concentration was determined according to the DTPA (diethylenetriaminepentaacetic acid) soil test.
As used herein, the term “field capacity,” refers to the drained upper limit or moisture content below which there is no free drainage flow. During the one week incubation period the moisture was reduced to about 80%. For each test 50 g of soil was placed into a cup and each cup was covered with a lid having four holes to allow for aeration and to minimize water loss.
Stock solutions containing each example were prepared by adding 2.15 g of urea and the corresponding amount of DCD (C2) or the reaction product (Ex. 1-3) to a 500 mL beaker to provide samples having 0.75 wt. % (Table 1), 1.5 wt. % (Table 2), and 3 wt. % (Table 3) DCD based on the total nitrogen concentration in the urea solution. After adding the urea (C1), urea plus DCD (C2), and urea plus the reaction products (Ex. 1-3), to the beakers, the contents of each beaker were diluted to 500 mL with distilled water to provide a stock solution. For the examples shown in Tables 1-3 below, 5 mL of the corresponding stock solution were introduced via a pipette onto each 50 g soil sample and the cover was placed thereon. The amount of nitrogen contained in each example (Ex. 1-3, C1, and C2) was 10 mg and the nitrogen was in the form of urea. The soil had at least an 80% field moisture capacity for each sample and if needed additional distilled water was used in order to achieve the 80% field moisture capacity.
Soil extractions were made at 1 week intervals to determine the amount of ammonium-nitrogen and nitrate-nitrogen in each example. A total of 10 extractions were performed, namely at time=0 and after the 1st week, 2nd week, 3rd week, 4th week, 5th week, 6th week, 7th week, 8th week, and the […]. Extracting the nitrogen from each sample was done by adding 100 mL of a 2M potassium chloride (KCl) solution to each soil sample to be tested. The amount of nitrogen in the form of ammonium (NH4^+) and nitrate (NO3^−) were then determined.
The amount of ammonium was determined using the well-known Berthelot reaction in which ammonia is chlorinated to monochloroamine, which then reacts with salicylate to form 5-aminosalicylate. After oxidation and oxidative coupling, a green color complex was formed which was measured at 660 nm using a spectrophotometer.
The determination of nitrate was determined based on the reduction of nitrate (NO3) to […] (NO2) by hydrazinium sulfate or cadmium metal. […]

[1] = 0.75 wt. % DCD based on nitrogen in urea solution, Wk. 0
[2] = 1.5 wt. % DCD Based on the Weight of Nitrogen in the Fertilizer, Wk. 0
[3] = 3 wt. % DCD Based on the Weight of Nitrogen in the Fertilizer, Wk. 0

## NC(N)=O [C1, urea]
[1]
  Ammonium (NH4^+): 0.39 mg N
  Nitrate (NO3^−): 1.27 mg N
0.75 wt. % DCD, Wk. 1
  Ammonium (NH4^+): 6.81 mg N
  Nitrate (NO3^−): 3.61 mg N
0.75 wt. % DCD, Wk. 2
  Ammonium (NH4^+): 4.21 mg N
  Nitrate (NO3^−): 6.37 mg N
0.75 wt. % DCD, Wk. 3
  Ammonium (NH4^+): 2.14 mg N
  Nitrate (NO3^−): 8.38 mg N
0.75 wt. % DCD, Wk. 4
  Ammonium (NH4^+): 0.18 mg N
  Nitrate (NO3^−): 10.45 mg N
0.75 wt. % DCD, Wk. 5
  Ammonium (NH4^+): 0.08 mg N
  Nitrate (NO3^−): 10.69 mg N
0.75 wt. % DCD, Wk. 6
  Ammonium (NH4^+): 0.08 mg N
  Nitrate (NO3^−): 10.66 mg N
0.75 wt. % DCD, Wk. 7
  Ammonium (NH4^+): 0.09 mg N
  Nitrate (NO3^−): 10.85 mg N
0.75 wt. % DCD, Wk. 8
  Ammonium (NH4^+): 0.10 mg N
  Nitrate (NO3^−): 10.97 mg N
0.75 wt. % DCD, Wk. 10
  Ammonium (NH4^+): 0.04 mg N
  Nitrate (NO3^−): 10.98 mg N
[2]
  Ammonium (NH4^+): 0.39 mg N
  Nitrate (NO3^−): 1.27 mg N
1.5 wt. % DCD, Wk. 1
  Ammonium (NH4^+): 6.81 mg N
  Nitrate (NO3^−): 3.61 mg N
1.5 wt. % DCD, Wk. 2
  Ammonium (NH4^+): 4.21 mg N
  Nitrate (NO3^−): 6.37 mg N
1.5 wt. % DCD, Wk. 3
  Ammonium (NH4^+): 2.14 mg N
  Nitrate (NO3^−): 8.38 mg N
1.5 wt. % DCD, Wk. 4
  Ammonium (NH4^+): 0.18 mg N
  Nitrate (NO3^−): 10.45 mg N
1.5 wt. % DCD, Wk. 5
  Ammonium (NH4^+): 0.08 mg N
  Nitrate (NO3^−): 10.69 mg N
1.5 wt. % DCD, Wk. 6
  Ammonium (NH4^+): 0.08 mg N
  Nitrate (NO3^−): 10.66 mg N
1.5 wt. % DCD, Wk. 7
  Ammonium (NH4^+): 0.09 mg N
  Nitrate (NO3^−): 10.85 mg N
1.5 wt. % DCD, Wk. 8
  Ammonium (NH4^+): 0.10 mg N
  Nitrate (NO3^−): 10.97 mg N
1.5 wt. % DCD, Wk. 10
  Ammonium (NH4^+): 0.04 mg N
  Nitrate (NO3^−): 10.98 mg N
[3]
  Ammonium (NH4^+): 0.39 mg N
  Nitrate (NO3^−): 1.27 mg N
3 wt. % DCD, Wk. 1
  Ammonium (NH4^+): 6.81 mg N
  Nitrate (NO3^−): 3.61 mg N
3 wt. % DCD, Wk. 2
  Ammonium (NH4^+): 4.21 mg N
  Nitrate (NO3^−): 6.37 mg N
3 wt. % DCD, Wk. 3
  Ammonium (NH4^+): 2.14 mg N
  Nitrate (NO3^−): 8.38 mg N
3 wt. % DCD, Wk. 4
  Ammonium (NH4^+): 0.18 mg N
  Nitrate (NO3^−): 10.45 mg N
3 wt. % DCD, Wk. 5
  Ammonium (NH4^+): 0.08 mg N
  Nitrate (NO3^−): 10.69 mg N
3 wt. % DCD, Wk. 6
  Ammonium (NH4^+): 0.08 mg N
  Nitrate (NO3^−): 10.66 mg N
3 wt. % DCD, Wk. 7
  Ammonium (NH4^+): 0.09 mg N
  Nitrate (NO3^−): 10.85 mg N
3 wt. % DCD, Wk. 8
  Ammonium (NH4^+): 0.10 mg N
  Nitrate (NO3^−): 10.97 mg N
3 wt. % DCD, Wk. 10
  Ammonium (NH4^+): 0.04 mg N
  Nitrate (NO3^−): 10.98 mg N
